Measurements reported in publication PMC9797592, “TJ-M2010-5, a novel CNS drug candidate, attenuates acute cerebral ischemia-reperfusion injury through the MyD88/NF-κB and ERK pathway” (Frontiers in Pharmacology, 2022).

Columns and labels:
[1] = system: OGD/R-induced SH-SY5Y cells; assay: OGD/R-induced SH-SY5Y cell apoptosis, Annexin V/PI flow cytometry; format: cell-based; settings: OGD 4 h / R 24 h with TJ-5
Procedure: The oxygen glucose deprivation/reoxygenation (OGD/R)-induced SH-SY5Y cell model was established to mimic CIRI as previously described ([Dong et al., 2021]). Briefly, SH-SY5Y cells were cultured in glucose-free Dulbecco’s Modified Eagle Medium, and the flasks were placed inside an incubator (1% O2, 94% N2, 5% CO2) for 4 h. OGD cells were then incubated in standard culture conditions with or without TJ-5 for 24 h of reperfusion. OGD 4 h/R 24 h SH-SY5Y cells were harvested, and the Annexin V/PI Apoptosis Kit (Multi- Science Biotech, China) was used to detect apoptosis by flow cytometry.

CIRI mice [2] = assay: Flow cytometry of immune cells isolated from the ischemic brain hemisphere; format: in vivo, C57BL/6 mice; settings: TJ-5 injected at the time of reperfusion
Procedure: After the mice were anesthetized, 0.9% saline was used for transcardial perfusion. The right brain hemispheres were homogenized in a 6-well plate using 2 ml Hank’s balanced salt solution (HBSS, Solarbio) per well. Collagenase IV (1 mg/ml) was added to […]. The brain homogenate was filtered through a 70 μm cell strainer and centrifuged at 300 g for 5 min at 4°C. Then, 2 ml of 30% Percoll (Sigma) were added to resuspend the brain cell precipitate, and the resuspended cells were slowly added to a 15 ml centrifuge tube containing 3 ml of 70% Percoll. The intermediate layer cells were analyzed by flow cytometry after density-gradient centrifugation.
Approximately 5 × 10^5 cells were suspended in 200 μL HBSS, and anti-mouse CD16/CD32 (5 ng/μL) was used to block Fc receptor binding. The cells were stained with allophycocyanin-conjugated CD45 antibody (1 ng/μL), FITC-conjugated CD11b antibody (1 ng/μL), and phycoerythrin-conjugated Ly6G antibody (1 ng/μL) and incubated in the dark at 4°C for 30 min. Finally, the cells were washed with HBSS buffer, resuspended in 200 μL of HBSS, and analyzed using a flow cytometer (BD FACSCalibur).

[3] = system: OGD/R-stimulated BV-2 cells; assay: OGD/R-stimulated BV-2 cells: TNF-α/IL-6 ELISA; format: cell-based
Procedure: Enzyme-linked immunosorbent assay (ELISA) kits were used to detect the levels of TNF-α, IL-1β, and IL-6 in the brain. Brain tissue was homogenized in 1 ml of phosphate-buffered saline using a tissue homogenizer. Then, the homogenates were centrifuged at 14,000 g for 10 min at 4 °C. The supernatant was immediately transferred for measurement following the manufacturer’s instructions. BV-2 cells were incubated with different treatments and the supernatants were collected and measured.

CIRI mice [4] = assay: MCAO cerebral ischemia-reperfusion injury model: neurological deficit score and TTC infarct volume; format: in vivo, C57BL/6 mice
Procedure: Male C57BL/6 mice (Beijing Vital River Laboratory Animal Technology Co. Ltd., Beijing, China) weighing 22–28 g and aged 8–10 weeks were used. All animal experiments were approved by the Institutional Animal Care and Use Committee of Tongji Hospital (Wuhan, China). All procedures were performed in accordance with specific pathogen-free standards. Mice were randomly divided into the following seven groups: sham, I/R, vehicle (I/R + saline), I/R + TJ-5 (5 mg/kg), I/R + TJ-5 (10 mg/kg), I/R + TJ-5 (15 mg/kg), and I/R + edaravone (3 mg/kg).
The mice were anesthetized with 1% pentobarbital sodium solution via intraperitoneal injection, and the body temperature was maintained at 37.0°C–37.5°C. The middle cerebral artery occlusion (MCAO) model was established according to the Longa method, as described previously ([Longa et al., 1989]). In brief, the right carotid artery was carefully separated and exposed. A silicon-coated embolic suture (Doccol, United States) was inserted slowly from the external carotid artery (ECA) into the internal carotid artery (ICA) until it reached the middle cerebral artery (MCA). After 1 h of ischemia, the embolic suture was withdrawn. The surgical procedure in the sham group was the same as that in the I/R group, but the MCA was not obstructed.
After 24 h of reperfusion, each group of mice was scored blindly, according to the scoring system of the Longa method ([Longa et al., 1989]). The score was 0 for no obvious neurological deficit, one for inability to fully extend the left forelimb, two for turning to the left, three for leaning to the left while walking, and four for the inability to walk spontaneously and impaired consciousness.
The mice were sacrificed 24 h after I/R. Mouse brains were harvested for the measurement of cerebral infarct volume. The brains were frozen at −80°C for 5 min and cut into five 2-mm thick slices. The slices were then placed in a small dish, 2% 2,3,5-triphenyltetrazolium chloride (TTC) solution (Sigma, United States) was added, and 4% paraformaldehyde was used for fixation. Images were captured using a digital camera. ImageJ software was used to measure the volume of the brain infarction.

CIRI mice [5] = assay: RT-qPCR and ELISA of inflammatory factors in the brain of CIRI mice; format: in vivo, C57BL/6 mice; settings: TJ-5 15 mg/kg i.v. after 1 h ischemia
Procedure: Total mRNA was extracted from the brain cortex using TRIzol reagent and reverse-transcribed into cDNA using the PrimeScript™ RT reagent kit (Takara, Japan), following the manufacturer’s instructions. RT-qPCR was performed using SYBR Green Real-time PCR Master Mix (Takara, Japan) with the Step One System (Life Technologies). The results were expressed as fold change from the untreated control and analyzed using the 2^−ΔΔCt method. The primers were as follows (5′–3′): MyD88 forward: TTTATCTGCTACTGCCCCAACG, reverse: GCGGCGACACCTTTTCTCA; TLR4 forward: ATGCTGCAACTGATGTTCCTTC, reverse: GATGTTAGACCTTTCTTCCTCCC; GAPDH forward: TGTTCCTACCCCCAATGTGTCC, reverse: GGAGTTGCTGTTGAAGTCGCAG; TNF-α forward: ATGGCCTCCCTCTCATCAGT, reverse: TGGTTTGCTACGACGTGGG; IL-6 forward: AGTGGCTAAGGACCAAGAC, reverse: ATAACGCACTAGGTTTGCCGA; iNOS forward: ATTCACAGCTCATCCGGTACG, reverse: GGATCTTGACCATCAGCTTGC; IL-1β forward: GCACTACAGGCTCCGAGATGAA, reverse: GTCGTTGCTTGGTTCTCCTTGT.
Enzyme-linked immunosorbent assay (ELISA) kits were used to detect the levels of TNF-α, IL-1β, and IL-6 in the brain. Brain tissue was homogenized in 1 ml of phosphate-buffered saline using a tissue homogenizer. […] BV-2 cells were incubated with different treatments and the supernatants were collected and measured.

## O=C(CCN1CCN(Cc2ccccc2)CC1)Nc1nc(-c2ccccc2)cs1 [TJ-5]
[1]
  apoptosis of OGD/R-induced SH-SY5Y cells: significantly reduced apoptosis
CIRI mice [2]
  number of brain-infiltrating CD11b+CD45hi myeloid cells: reduced the number
  proportion of inactive microglia (CD11b+CD45int): increased the proportion
[3]
  levels of TNF-α and IL-6 in supernatants: markedly reduced
CIRI mice [4]; TJ-5 15 mg/kg i.v. at 1 h of ischemia, 24 h reperfusion, TTC, I/R group 34.24%
  percentage of infarct volume: 8.47%
CIRI mice [4]; TJ-5 15 mg/kg vs I/R group, 24 h reperfusion, Longa score
  neurological deficit score: significantly lower
CIRI mice [4]; intravenous TJ-5 at 4 h reperfusion, TTC at 24 h after reperfusion
  infarct volume: effectively reduced infarct volume
CIRI mice [5]; RT-qPCR
  iNOS (with TNF-α, IL-6, IL-1β) mRNA expression levels in the brain: downregulated
CIRI mice [5]; RT-qPCR and ELISA
  expression of TNF-α, IL-1β, and IL-6 in the brain (mRNA and protein): reduced
